# Target: soluble guanylate cyclase (human GUCYA3 and GUCYB3) overexpressed in CHO cells (Homo sapiens (Human), UniProt Q02108+Q02153)
# Assay: CHO cellular assay (cGMP production, Cisbio cGMP HTRF kit)
# Type: cell-based
# Details: CHO GUCY clone 8E10, cGMP production, assay buffer with 1 mM IBMX and 20 uM ODQ, 1 h room temperature; minimum quantification limit 0.5 nM (listed 0.5 nM means ≤0.5 nM); read-out: EC50
# Procedure, shortened: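 EC50 was derived by 4-parameter sigmoidal fit of cGMP levels, read by HTRF against a standard curve. Compounds were applied for 1 h at room temperature, in buffer with 20 uM ODQ, 1 mM IBMX and 0.1% BSA (0.5% DMSO final). The cells were a stable CHO-K1 line (clone 8E10) overexpressing human GUCYA3 and GUCYB3, seeded at 3000/well.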
# Sequence of soluble guanylate cyclase (human GUCYA3 and GUCYB3) overexpressed in CHO cells (Q02108 whole entry partner): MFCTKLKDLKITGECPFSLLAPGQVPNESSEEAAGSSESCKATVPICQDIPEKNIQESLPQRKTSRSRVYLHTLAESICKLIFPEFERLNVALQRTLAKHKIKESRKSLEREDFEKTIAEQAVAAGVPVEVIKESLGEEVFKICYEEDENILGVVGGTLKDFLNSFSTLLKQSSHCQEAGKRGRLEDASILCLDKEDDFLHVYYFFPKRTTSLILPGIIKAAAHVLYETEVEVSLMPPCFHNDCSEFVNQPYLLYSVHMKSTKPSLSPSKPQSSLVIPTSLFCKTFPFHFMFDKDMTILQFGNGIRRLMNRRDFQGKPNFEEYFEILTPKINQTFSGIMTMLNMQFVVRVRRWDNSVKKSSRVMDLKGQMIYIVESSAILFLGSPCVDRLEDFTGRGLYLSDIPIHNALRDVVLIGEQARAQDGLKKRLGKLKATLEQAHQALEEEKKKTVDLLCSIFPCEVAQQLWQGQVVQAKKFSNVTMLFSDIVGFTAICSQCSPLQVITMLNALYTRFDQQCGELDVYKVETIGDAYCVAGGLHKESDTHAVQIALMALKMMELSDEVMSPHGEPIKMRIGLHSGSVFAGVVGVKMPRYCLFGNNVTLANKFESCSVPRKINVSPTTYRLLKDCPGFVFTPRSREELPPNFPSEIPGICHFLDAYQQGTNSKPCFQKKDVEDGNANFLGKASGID
# Sequence of soluble guanylate cyclase (human GUCYA3 and GUCYB3) overexpressed in CHO cells (Q02153 whole entry): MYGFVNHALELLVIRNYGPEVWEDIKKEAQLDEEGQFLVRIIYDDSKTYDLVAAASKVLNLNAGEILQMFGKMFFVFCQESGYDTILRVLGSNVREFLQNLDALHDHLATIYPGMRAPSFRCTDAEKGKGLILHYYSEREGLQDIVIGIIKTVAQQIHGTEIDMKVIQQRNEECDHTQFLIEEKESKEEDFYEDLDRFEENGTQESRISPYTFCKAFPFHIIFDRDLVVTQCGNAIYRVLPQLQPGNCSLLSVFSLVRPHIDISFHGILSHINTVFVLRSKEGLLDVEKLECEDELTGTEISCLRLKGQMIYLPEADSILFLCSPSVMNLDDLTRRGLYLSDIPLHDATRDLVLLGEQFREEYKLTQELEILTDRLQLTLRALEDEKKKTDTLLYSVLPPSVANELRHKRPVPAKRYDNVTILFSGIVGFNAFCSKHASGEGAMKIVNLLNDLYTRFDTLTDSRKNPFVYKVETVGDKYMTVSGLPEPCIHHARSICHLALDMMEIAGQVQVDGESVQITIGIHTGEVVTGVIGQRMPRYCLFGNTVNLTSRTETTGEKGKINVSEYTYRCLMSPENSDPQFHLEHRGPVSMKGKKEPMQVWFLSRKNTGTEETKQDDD
row,Structure (SMILES),EC50
1,"O=C(O)c1cnn(-c2cccc(-c3cccc4c3N(Cc3ccc5c(c3)CCN(Cc3ccccn3)C5)CC4)n2)c1C(F)(F)F [Example 25, 1-(6-(1-((2-(Pyridin-2-ylmethyl)-1,2,3,4-tetrahydroisoquinolin-6-yl)methyl)indolin-7-yl)pyridin-2-yl)-5-(trifluromethyl)-1H-pyrazole-4-carboxylic Acid]",2.4 nM
2,Cc1cc2c(c(-c3cccc(-n4ncc(C(=O)O)c4C(F)(F)F)n3)c1)C(Oc1ccc(C3CCN(C(=O)C4CC4)CC3)cc1C)CC2 (centres unmarked) [Example 5-2],1 nM
3,"Cc1cc(C2CCN(C(=O)C3CC3)CC2)ccc1CC1CCc2cccc(-c3cccc(-n4ncc(C(=O)O)c4C)c3)c21 (single isomer, unassigned; (-)) [54. b). (−), (−)-1-(3-(3-(4-(1-(cyclopropanecarbonyl)piperidin-4-yl)-2-methylbenzyl)-2,3-dihydro-1H-inden-4-yl)phenyl)-5-methyl-1H-pyrazole-4-carboxylic acid]",168 nM
4,"CCc1cc(CC2CCc3cccc(-c4cccc(-n5ncc(C(=O)O)c5CC)n4)c32)ccc1C1CCN(C(=O)C2CC2)CC1 (single isomer, unassigned; (+)) [38-1 (+), (+)-1-(6-(3-(4-(1-(cyclopropanecarbonyl)piperidin-4-yl)-3-ethylbenzyl)-2,3-dihydro-1H-inden-4-yl)pyridin-2-yl)-5-ethyl-1H-pyrazole-4-carboxylic acid]",≤ 0.5 nM
5,"CCOC(=O)N1CCC(c2ccc(O[C@H]3CCc4cccc(-c5cccc(-n6ncc(C(=O)O)c6CC)n5)c43)cc2CC)CC1 [Example 29, (S)-1-(6-(3-(4-(1-(Ethoxycarbonyl)piperidin-4-yl)-3-ethylphenoxy)-2,3-dihydro-1H-inden-4-yl)pyridin-2-yl)-5-ethyl-1H-pyrazole-4-carboxylic Acid]",1 nM
6,"Cc1cc(C2CCN(C(=O)C3CCC3)CC2)ccc1NC1CCc2cccc(-c3cccc(-n4ncc(C(=O)O)c4C)n3)c21 (single isomer, unassigned; (+)) [Example 45a]",≤ 0.5 nM
7,"CCc1c(C(=O)O)cnn1-c1cccc(-c2cccc3c2N(Cc2ccc(C4CCN(C(=O)C5CC5)CC4)cc2C)CC3C)n1 (single isomer, unassigned; (-)) [(−)-20-2, (−)-1-(6-(1-(4-(1-(Cyclopropanecarbonyl)piperidin-4-yl)-2-methylbenzyl)-3-methylindolin-7-yl)pyridin-2-yl)-5-ethyl-1H-pyrazole-4-carboxylic acid]",1 nM
8,"Cc1cc(C2CCN(C(=O)CO)CC2)ccc1NC1CCc2cccc(-c3cccc(-n4ncc(C(=O)O)c4C(F)(F)F)c3)c21 (single isomer, unassigned; (+)) [Example 56]",1 nM
9,"Cc1cc(C2CCN(C(=O)C3CC3)CC2)ccc1NC1CCc2cccc(-c3cccc(-n4ncc(C(=O)O)c4CC(F)(F)F)n3)c21 (single isomer, unassigned; (+)) [Example 57, (+)-1-(6-(3-((4-(1-(Cyclopropanecarbonyl)piperidin-4-yl)-2-methylphenyl)amino)-2,3-dihydro-1H-inden-4-yl)pyridin-2-yl)-6-(2,2,2-trifluoroethyl)-1H-pyrazole-4-carboxylic Acid]",1 nM
10,"CCc1cc(CC2CCc3cccc(-c4cccc(-n5ncc(C(=O)O)c5C)c4)c32)ccc1C1CCN(C(=O)C2CC2)CC1 (single isomer, unassigned; (+)) [55-1 (+), (+)-1-(3-(3-(4-(1-(cyclopropanecarbonyl)piperidin-4-yl)-3-ethylbenzyl)-2,3-dihydro-1H-inden-4-yl)phenyl)-5-methyl-1H-pyrazole-4-carboxylic acid]",≤ 0.5 nM
11,"Cc1cc(C2CCN(C(=O)[C@H](C)O)CC2)ccc1NC1COc2cccc(-c3cccc(-n4ncc(C(=O)O)c4C)n3)c21 (single isomer, unassigned; (-)) [Example 35b]",17 nM
12,"CCc1nc(NC2CCc3cccc(-c4cccc(-n5ncc(C(=O)O)c5CC)n4)c32)ccc1C1CCN(C(=O)C2CC2)CC1 (single isomer, unassigned; (+)) [Example 63a, (+)-1-(6-(3-((5-(1-(Cyclopropanecarbonyl)piperidin-4-yl)-6-ethylpyridin-2-yl)amino)-2,3-dihydro-1H-inden-4-yl)pyridin-2-yl)-5-ethyl-1H-pyrazole-4-carboxylic Acid]",2 nM
13,"CCC[C@H](O)C(=O)N1CCC(c2ccc(CC3CCc4cccc(-c5cccc(-n6ncc(C(=O)O)c6CC)n5)c43)cc2CC)CC1 (single isomer, unassigned; (+)) [40-1 (+)]",≤ 0.5 nM
14,"Cc1cc(C2CCN(C(=O)CC3CC3)CC2)cc(F)c1NC1CCc2cccc(-c3cccc(-n4ncc(C(=O)O)c4C)n3)c21 (single isomer, unassigned; (-)) [(−)-53-3, (−)-1-(6(3-((4-(1-(2-cyclopropylacetyl)piperidin-4-yl)-2-fluoro-6-methylphenyl)amino)-2,3-dihydro-1H-inden-4-yl)pyridin-2-yl)-5-methyl-1H-pyrazole-4-carboxylic acid]",59 nM
15,CCc1cc(CN2CCc3cccc(-c4cccc(-n5ncc(C(=O)O)c5C(F)(F)F)n4)c32)ccc1C1CCN(CC(F)(F)F)CC1 [Example 15],1.5 nM
16,"CCc1c(C(=O)O)cnn1-c1cccc(-c2cccc3c2C(Cc2ccc(C4CCN(C(=O)OC)CC4)cc2C)CC3)n1 (single isomer, unassigned; (+)) [Example 42. b). (+), (+)-5-ethyl-1-(6-(3-(4-(1-(methoxycarbonyl)piperidin-4-yl)-2-methylbenzyl)-2,3-dihydro-1H-inden-4-yl)pyridin-2-yl)-1H-pyrazole-4-carboxylic acid]",≤ 0.5 nM
17,"CCc1cc(O[C@H]2CCc3cccc(-c4cccc(-n5ncc(C(=O)O)c5CC)n4)c32)ccc1C1CCN(C(=O)[C@@H](C)CO)CC1 [Example 31-3, 5-Ethyl-1-(6-((S)-3-(3-ethyl-4-(1-((S)-3-hydroxy-2-methylpropanoyl)piperidin-4-yl)phenoxy)-2-3-dihydro-1H-inden-4-yl)pyridin-2-yl)-1H-pyrazole-4-carboxylic acid]",≤ 0.5 nM
18,"CCc1cc(O[C@H]2CCc3cccc(-c4cccc(-n5ncc(C(=O)O)c5CC)n4)c32)ccc1C1CCN(C(=O)C2(O)CCC2)CC1 [Example 31-4, (S)-5-Ethyl-1-(6-(3-(3-ethyl-4-(1-(1-hydroxycyclobutanecarbonyl)piperidin-4-yl)phenoxy)-2,3-dihydro-1H-inden-4-yl)pyridin-2-yl)-1H-pyrazole-4-carboxylic acid]",≤ 0.5 nM
19,"Cc1cc(C2CCN(C(=O)C3CC3)CC2)ccc1NC1CCc2cccc(-c3cccc(-n4ncc(C(=O)O)c4C)n3)c21 (single isomer, unassigned; (+)) [Example 7a, (+)-1-(6-(3-((4-(1-(cyclopropanecarbonyl)piperidin-4-yl)-2-methylphenyl)amino)-2,3-dihydro-1H-inden-4-yl)pyridin-2-yl)-5-methyl-1H-pyrazole-4-carboxylic acid]",≤ 0.5 nM
20,"O=C(O)c1cnn(-c2cccc(-c3cccc4ccn(Cc5ccc(C6CCN(C(=O)C7CC7)CC6)cc5)c34)n2)c1C(F)(F)F [Example 26, 1-(6-(1-(4-(1-(Cyclopropanecarbonyl)piperidin-4-yl)benzyl)-1H-indol-7-yl)pyridin-2-yl)-5-(trifluoromethyl)-1H-pyrazole-4-carboxylic Acid]",21 nM
21,CCc1c(C(=O)O)cnn1-c1cccc(-c2cccc3c2C(Nc2ccc(C4CCN(CC(F)(F)F)CC4)cc2C)CC3)n1 (centres unmarked) [Example 11-3],1.4 nM
22,"Cc1cc(C2CCN(C(=O)C(C)C)CC2)ccc1NC1CCc2cccc(-c3cccc(-n4ncc(C(=O)O)c4C)n3)c21 (single isomer, unassigned; (-)) [(−)-46-1, (−)-1-(6-(3-((4-(1-isobutyrylpiperidin-4-yl)-2-methylphenyl)amino)-2,3-dihydro-1H-inden-4-yl)pyridin-2-yl)-5-methyl-1H-pyrazole-4-carboxylic acid]",100 nM
23,"Cc1cc(C2CCN(C(=O)C3CCC3)CC2)ccc1NC1CCc2cccc(-c3cccc(-n4ncc(C(=O)O)c4C)n3)c21 (single isomer, unassigned; (-)) [Example 45b]",3.5 nM
24,"CCC[C@H](O)C(=O)N1CCC(c2ccc(CC3CCc4cccc(-c5cccc(-n6ncc(C(=O)O)c6CC)n5)c43)cc2CC)CC1 (single isomer, unassigned; (-)) [40-1 (−)]",15 nM
25,"CCc1c(C(=O)O)cnn1-c1cccc(-c2cccc3c2C(Cc2ccc(C4CCN(C(=O)OC)CC4)cc2C)CC3)n1 (single isomer, unassigned; (-)) [Example 42. b). (−), (−)-5-ethyl-1-(8-(3-(4-(1-(methoxycarbonyl)piperidin-4-yl)-2-methylbenzyl)-2,3-dihydro-1H-inden-4-yl)pyridin-2-yl)-1H-pyrazole-4-carboxylic acid]",93 nM
26,Cc1cc(C2CCN(C(=O)C3CC3)CC2)ccc1O[C@H]1CCc2cccc(-c3cccc(-n4cc(C(=O)O)cn4)n3)c21 [Example 5-5],2.4 nM
27,"CCc1c(C(=O)O)cnn1-c1cccc(-c2cccc3c2C(Cc2ccc(C4CCN(C(=O)[C@H](C)O)CC4)cc2C)CC3)n1 (single isomer, unassigned; (-)) [40-2 (−)]",25 nM
28,"CCc1c(C(=O)O)cnn1-c1cccc(-c2cccc3c2C(Cc2ccc(C4CCN(C(=O)C5CC5)CC4)cc2C)CC3)n1 (single isomer, unassigned; (+)) [38-3 (+), (+)-1-(6-(3-(4-(1-(cyclopropanecarbonyl)piperidin-4-yl)-2-methylbenzyl)-2,3-dihydro-1H-inden-4-yl)pyridin-2-yl)-5-ethyl-1H-pyrazole-4-carboxylic acid]",≤ 0.5 nM

# Same assay, conditions: EC50 (nM)
row,Structure (SMILES),EC50
1,"CCc1cc(O[C@H]2CCc3cccc(-c4cccc(-n5ncc(C(=O)O)c5CC)n4)c32)ccc1C1CCN(C(=O)OCC(C)C)CC1 [Example 64-2, (S)-5-Ethyl-1-(6-(3-(3-ethyl-4-(1-(isobutoxycarbonyl)piperidin-4-yl)phenoxy)-2,3-dihydro-1H-inden-4-yl)pyridin-2-yl)-1H-pyrazole-4-carboxylic acid]",3 nM
